Assay results as given in patent publication US10131652B2, “Pyrimidinyloxy benzene derivatives as herbicides” (E. I. DU PONT DE NEMOURS AND COMPANY, priority 2014, dated 2018).

What was measured:
Type in all cases: in vivo
[1] = tested on: ragweed (common ragweed, Ambrosia elatior); experiment: Test D pre-/postemergence plant response; settings: Postemergence; for Plant response rating, Ragweed: scale 0 to 100, 0 no effect, 100 complete control
Outline: (§1)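 Preemergence: seeds in loam/sand blend treated with test chemicals in non-phytotoxic solvent with surfactant; postemergence: plants at 2–18 cm (1- to 4-leaf stage) in peat-based medium sprayed likewise. Greenhouse 13 to 15 days, then visual rating vs controls, 0 (no effect) to 100 (complete control).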

[2] = tested on: yellow nutsedge (Cyperus esculentus); experiment: Test D pre-/postemergence plant response; settings: Postemergence; for Plant response rating, Nutsedge, Yellow: scale 0 to 100, 0 no effect, 100 complete control
Outline: as §1

[3] = tested on: oilseed rape (Brassica napus); experiment: Test D pre-/postemergence plant response; settings: Postemergence; for Plant response rating, Oilseed Rape: scale 0 to 100, 0 no effect, 100 complete control
Outline: as §1

[4] = tested on: johnsongrass (Sorghum halepense); experiment: Test D pre-/postemergence plant response; settings: Postemergence; for Plant response rating, Johnsongrass: scale 0 to 100, 0 no effect, 100 complete control
Outline: as §1

[5] = tested on: galium (catchweed bedstraw, Galium aparine); experiment: Test D pre-/postemergence plant response; settings: Postemergence; for Plant response rating, Galium: scale 0 to 100, 0 no effect, 100 complete control
Outline: as §1

[6] = tested on: winter wheat (Triticum aestivum); experiment: Test D pre-/postemergence plant response; settings: Postemergence; for Plant response rating, Wheat: scale 0 to 100, 0 no effect, 100 complete control
Outline: as §1

[7] = tested on: small-flower umbrella sedge (Cyperus difformis); experiment: Test C flooded paddy test plant response; settings: Flood, 250 g ai/ha; scale of 0 to 100 where 0 is no effect and 100 is complete control; 13 to 15 days
Outline: (§2)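 Greenhouse paddy assay, 13–15 days. Treatment into 3 cm floodwater over 2-leaf plants; visual 0–100 rating against controls.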

[8] = tested on: barnyardgrass (Echinochloa crus-galli); experiment: Test C flooded paddy test plant response; settings: Flood, 250 g ai/ha; scale of 0 to 100 where 0 is no effect and 100 is complete control; 13 to 15 days
Outline: as §2

[9] = tested on: ducksalad (Heteranthera limosa); experiment: Test C flooded paddy test plant response; settings: Flood, 250 g ai/ha; scale of 0 to 100 where 0 is no effect and 100 is complete control; 13 to 15 days
Outline: as §2

rice (Oryza sativa) = experiment: Test C flooded paddy test plant response; settings: Flood, 250 g ai/ha; scale of 0 to 100 where 0 is no effect and 100 is complete control; 13 to 15 days
Outline: as §2

[10] = tested on: pigweed (Amaranthus retroflexus); experiment: Test B pre-/postemergence plant response
Outline: (§3)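 Greenhouse pots, loam/sand soil; compound formulated with surfactant in non-phytotoxic solvent. Preemergence soil spray and postemergence spray at 1–2 leaf stage run simultaneously. Visual injury, 0–100, about 10 days post-treatment.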

[11] = tested on: giant foxtail (Setaria faberii); experiment: Test B pre-/postemergence plant response
Outline: as §3

[12] = tested on: barnyardgrass (Echinochloa crus-galli); experiment: Test B pre-/postemergence plant response
Outline: as §3

[13] = tested on: wheat (Triticum aestivum); experiment: Test B pre-/postemergence plant response
Outline: as §3

corn (Zea mays) = experiment: Test B pre-/postemergence plant response
Outline: as §3

[14] = 31 g ai/ha, scale 0 to 100 (0 no effect, 100 complete control)
[15] = 125 g ai/ha, postemergence, 0 to 100 scale, 0 no effect, 100 complete control
[16] = Postemergence, 500 g ai/ha, 0 to 100 scale (0 no effect, 100 complete control)
[17] = Preemergence, 125 g ai/ha, 0 to 100 scale (0 no effect, 100 complete control)
[18] = Preemergence, 500 g ai/ha, 0 to 100 scale where 0 is no effect and 100 is complete control

FC(F)(F)c1cc(-c2c(Cl)cccc2Oc2ncc(Cl)cn2)no1 [Compound 169]
Ragweed plant response rating [1, 14]: 5 | Plant response rating, Ragweed ([1]; 62 g ai/ha): 25 | Plant response rating, Ragweed ([1]; 125 g ai/ha): 35 | Nutsedge, Yellow plant response rating [2, 14]: 0 | Plant response rating, Nutsedge, Yellow ([2]; 62 g ai/ha): 0 | Plant response rating, Nutsedge, Yellow ([2]; 125 g ai/ha): 5 | Oilseed Rape plant response rating [3, 14]: 5 | Plant response rating, Oilseed Rape ([3]; 62 g ai/ha): 10 | Plant response rating, Oilseed Rape ([3]; 125 g ai/ha): 60 | Johnsongrass plant response rating [4, 14]: 0 | Plant response rating, Johnsongrass ([4]; 62 g ai/ha): 0 | Plant response rating, Johnsongrass ([4]; 125 g ai/ha): 5 | Galium plant response rating [5, 14]: 70 | Plant response rating, Galium ([5]; 62 g ai/ha): 70 | Plant response rating, Galium ([5]; 125 g ai/ha): 75 | Wheat plant response rating [6, 14]: 5 | Plant response rating, Wheat ([6]; 62 g ai/ha): 10 | Plant response rating, Wheat ([6]; 125 g ai/ha): 10 | Sedge, Umbrella plant response rating [7]: 0 | Barnyardgrass plant response rating [8]: 0 | Ducksalad plant response rating [9]: 0 | Rice plant response rating (rice (Oryza sativa)): 0 | Plant response rating, Pigweed [10, 15]: 100 | Plant response rating, Pigweed [10, 16]: 100 | Pigweed plant response rating [10, 17]: 100 | Plant response rating, Pigweed [10, 18]: 100 | Plant response rating, Foxtail, Giant [11, 15]: 30 | Plant response rating, Foxtail, Giant [11, 16]: 60 | Foxtail, Giant plant response rating [11, 17]: 50 | Plant response rating, Foxtail, Giant [11, 18]: 90 | Plant response rating, Barnyardgrass [12, 15]: 10 | Plant response rating, Barnyardgrass [12, 16]: 30 | Barnyardgrass plant response rating [12, 17]: 20 | Plant response rating, Barnyardgrass [12, 18]: 30 | Plant response rating, Wheat [13, 15]: 0 | Plant response rating, Wheat [13, 16]: 0 | Plant response rating, Corn (corn (Zea mays); [15]): 10 | Plant response rating, Corn (corn (Zea mays); [16]): 20
